The test system of series [1] is MV4-11. The experiment in a line: Antiproliferative activity against human MV4-11 cells assessed as inhibition of cell growth incubated for 72 hrs by CellTiterGlo luminescent assay. Format: functional, cell-based. The following applies: MV4-11, 72 h. A general note: Cellular ATP, detected with luciferase, serves as a proxy for viable cell number.
A further series deals with HCD-57. The experiment in a line: Antiproliferative activity against mouse HCD-57 cells harboring FLT3-D835Y mutant assessed as reduction in cell viability measured after 72 hrs by CellTiterGlo luminescent assay. The class given is functional, cell-based.
The test system of the next series is MOLM-13. Put plainly: Antiproliferative activity against human MOLM-13 cells assessed as reduction in cell viability measured after 72 hrs by CellTiterGlo luminescent assay. Format: functional, cell-based. The following applies: MOLM-13, 72 h.
Series [2] deals with Receptor-type tyrosine-protein kinase FLT3 (Homo sapiens), P36888 [UNDEFINED MUTATION]. Format: cell-based. The following applies: BaF3, dose 0.1-100 nM, time 4.0 hrs.
Series [3] shares this test system. The experiment in a line: Inhibition of FLT3-ITD-F691L mutant (unknown origin) transformed in mouse BaF3 cells assessed as inhibition of ERK phosphorylation at Thr202/Tyr204 residue incubated for 4 hrs by western blot analysis. Format: cell-based. The following applies: dose 0.1-100 nM. (In general: A western blot detects proteins with antibodies after separation by electrophoresis.)

Series [4] has as its system MV4-11. Put plainly: Induction of apoptosis in human MV4-11 cells assessed as early apoptotic cells at 100 nM incubated for 24 hrs by AnnexinV-FITC/PI staining based flow cytometry (reference value: 3.09%). The class given is functional.
Series [5] concerns MV4-11. The experiment in a line: Induction of apoptosis in human MV4-11 cells assessed as necrotic cells at 100 nM incubated for 24 hrs by AnnexinV-FITC/PI staining based flow cytometry (reference value: 0.45%). Format: functional. (In general: Flow cytometry measures light scatter and fluorescence of single cells or particles in a stream.)
The nature of series [6]: Induction of apoptosis in mouse HCD-57 cells at 100 nM incubated for 24 hrs by AnnexinV-FITC/PI staining based flow cytometry. The class given is toxicity, cell-based. The following applies: hcd-57, 24 h, 0.1 µM.
A short description of series [7]: MRT (0 to t) in Sprague-Dawley rat at 1 mg/kg, iv measured for 24 hrs by LC-MS/MS analysis. The class given is ADME, organism-based. The following applies: in vivo.
The nature of series [8]: Initial drug concentration in Sprague-Dawley at 1 mg/kg, iv by LC-MS/MS analysis. The class given is ADME, organism-based. The following applies: rat, in vivo.
A short description of series [9]: Clearance in Sprague-Dawley rat at 1 mg/kg, iv measured for 24 hrs by LC-MS/MS analysis. The following applies: in vivo. Format: ADME, organism-based.
Series [10] is described as follows: MRT (0 to t) in Sprague-Dawley rat at 10 mg/kg, po measured for 24 hrs by LC-MS/MS analysis. The class given is ADME, organism-based. The following applies: in vivo.
In series [11] the test system is MV4-11. The experiment in a line: Antitumor activity against human MV4-11 cells xenografted in BALB/c mouse assessed as tumor growth inhibition at 15 mg/kg, iv QD for 21 days by vernier caliper analysis. The class given is functional. The following applies: MV4-11, 504 h, time 21 day, read-out: TGI.
A short description of series [12]: Toxicity in BALB/c mouse xenografted with human MV4-11 cells assessed as white blood cell count at 15 mg/kg, iv for 21 days. The class given is organism-based. The following applies: in vivo, 504 h, time 21 day.
The nature of series [13]: Toxicity in BALB/c mouse xenografted with human MV4-11 cells assessed as granulocyte count at 15 mg/kg, iv for 21 days. The class given is organism-based. The following applies: in vivo, 504 h, time 21 day.
Series [14] can be described thus: Toxicity in BALB/c mouse xenografted with human MV4-11 cells assessed as morphological changes in liver at 15 mg/kg, iv for 21 days by H and E staining based analysis. The class given is organism-based. The following applies: in vivo, 504 h, time 21 day.
Series [15] can be described thus: Toxicity in BALB/c mouse xenografted with human MV4-11 cells assessed as morphological changes in lung at 15 mg/kg, iv for 21 days by H and E staining based analysis. Format: organism-based. The following applies: in vivo, 504 h, time 21 day.

Molecules are shown by their SMILES. The source made the active and inactive calls. The calls are words filed in the database; no cut-off is given here.

Sequence of Receptor-type tyrosine-protein kinase FLT3 (Homo sapiens), P36888 [UNDEFINED MUTATION] (P36888 whole entry, looked up, stated change not applied): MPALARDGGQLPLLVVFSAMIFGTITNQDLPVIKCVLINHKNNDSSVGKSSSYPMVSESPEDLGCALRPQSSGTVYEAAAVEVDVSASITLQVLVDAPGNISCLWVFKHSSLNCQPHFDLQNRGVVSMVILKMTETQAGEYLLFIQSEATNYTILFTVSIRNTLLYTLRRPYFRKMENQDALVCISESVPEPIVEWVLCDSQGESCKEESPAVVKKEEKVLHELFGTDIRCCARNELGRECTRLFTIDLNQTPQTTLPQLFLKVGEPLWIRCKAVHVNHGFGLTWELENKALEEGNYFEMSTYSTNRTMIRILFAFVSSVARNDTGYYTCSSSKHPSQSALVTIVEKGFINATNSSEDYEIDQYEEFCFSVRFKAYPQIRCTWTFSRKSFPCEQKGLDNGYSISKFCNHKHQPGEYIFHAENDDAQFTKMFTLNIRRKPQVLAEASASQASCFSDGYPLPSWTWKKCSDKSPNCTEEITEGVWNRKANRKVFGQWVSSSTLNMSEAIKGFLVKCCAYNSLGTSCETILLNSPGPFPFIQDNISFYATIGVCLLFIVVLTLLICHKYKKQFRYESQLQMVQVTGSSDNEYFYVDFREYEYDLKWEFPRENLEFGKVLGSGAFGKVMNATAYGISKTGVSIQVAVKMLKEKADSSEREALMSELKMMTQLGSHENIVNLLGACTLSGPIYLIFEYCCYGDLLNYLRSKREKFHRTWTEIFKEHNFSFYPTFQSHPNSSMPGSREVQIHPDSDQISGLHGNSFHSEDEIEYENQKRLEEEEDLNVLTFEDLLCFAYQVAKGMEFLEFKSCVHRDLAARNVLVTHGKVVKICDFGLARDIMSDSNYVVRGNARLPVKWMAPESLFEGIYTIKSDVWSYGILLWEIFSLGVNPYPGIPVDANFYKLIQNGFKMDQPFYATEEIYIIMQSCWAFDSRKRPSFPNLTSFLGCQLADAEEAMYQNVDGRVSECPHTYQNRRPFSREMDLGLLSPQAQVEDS

Usually IC50 stands for the concentration that inhibits the measured activity by half. In general, MRT last refers to the average time that molecules of a dose stay in the body. Usually clearance stands for the rate of elimination divided by the concentration. In the case of `CCN1CCN(c2ccc(C(=O)Nc3cc(-c4ccc5ncn(Cc6c(Cl)cccc6Cl)c5c4)[nH]n3)cc2)CC1`, the IC50 in the series with MV4-11 [1] amounted to 2.93 nM; in the series with MOLM-13, 9.85 nM. The result in the series on HCD-57 was Active. Further, the inhibition entry in series [2] and in series [3] was “Dose-Dependent Effect” in each case. Moreover, the Activity in the series on MV4-11 [4] was 15.2%; in the series with MV4-11 [5], 0.61%; in series [6] it was “Non-Toxic”; in series [12], “Non-Toxic”; in [13], “Non-Toxic”; in [14], “Non-Toxic”. The Activity entry in series [15] is “Non-Toxic”. Further, the values for the mean residence time (MRT last) at 24 h in series [7] and in series [10] were 1.96 h and 3.63 h, respectively. Moreover, in series [8], the C0 amounted to 368 ng/mL. In series [9], this molecule gave a clearance of 40.2 mL/min/kg. Moreover, the inhibition in vivo at 15 mg/kg in the series on MV4-11 [11] came to 99.5%.

Source of the values: ChEMBL document CHEMBL5226341, “Discovery of a Potent FLT3 Inhibitor (LT-850-166) with the Capacity of Overcoming a Variety of FLT3 Mutations” (J Med Chem, 2021).
